This note sets out measurements from US20240059693A1, “FUSED BICYCLIC PYRAZOLE DERIVATIVES AND METHODS OF USE THEREOF FOR THE TREATMENT OF HERPESVIRUSES” (Merck Sharp & Dohme LLC, priority 2020, published 2024).

Read-outs that look alike come from different tables or passages of the source.

In test [1] the test system is HCMV Strain AD169. The experiment in a line: Viral qPCR assay, HCMV in MRC-5 cells. Format: cell-based, Human cytomegalovirus. The conditions noted are these: read-out: CMV MRC5 Cell (EC50). The protocol:
(§1) MRCS cells, Vero cells, and MeWo cells were obtained from ATCC and were maintained at 37° C./5% CO2/90% relative humidity in Minimal Essential Medium with 10% fetal bovine serum, […] L-glutamine, 100 units/ml penicillin and 100 ug/ml streptomycin. Assay plates were prepared by dispensing compounds dissolved in DMSO into wells of 384 well collagen-coated plates using an ECHO acoustic dispenser. Each compound was tested in a 10-point, serial 3-fold dilution. Controls included uninfected cells and infected cells treated only with DMSO. Assays were initiated by mixing selected cells, in suspension, with virus, and dispensing 50 μl/well infected cells to pre-plated compounds. Plates were incubated at 37° C./5% CO2/90% relative humidity for ˜72 hrs to permit genomic replication, and infected cells were lysed by the addition of an equal volume of lysis buffer (10 mM Tris-HCl, pH8, 50 mM KCl, 2 mM MgCl2, 0.45% NP-40, 0.45% Tween-20, and 100 μg/ml proteinase K). An aliquot of the lysate was transferred to a 384-well PCR plate and incubated at 56° C. for 1 hour and then at 95° C. for 10 min. Levels of a viral gene and of the cellular control, PPIA (Thermo Fisher Assay ID=Hs04194521_s1), were measured in separate 10 μL qPCR assays using TaqMan® Gene Expression Master Mix (Applied Biosystems), and an 7900HT Fast Real-Time PCR System with 384-Well Block Module. 7-point, serial 10-fold dilutions of a plasmid standard were run on each plate to generate a standard curve, and genome copies numbers were calculated by plotting experimental Ct onto linear regression of the standard curve. Viral genome copy numbers were normalized by cellular control copy number, and compound effects were normalized to the window defined by the controls. Calculated % effects were fit using a 4-parameter algorithm, and EC50 was reported.
as §1, with “gene” for “gene and of the cellular control, PPIA (Thermo Fisher Assay ID=Hs04194521_s1),”, “in” for “in separate”, “Compound effects on viral” for “Viral”, “number” for “numbers were normalized by cellular control copy number, and compound effects”
HCMV: Strain AD169 Street was assayed in MRC-5 cells and was used at 0.05-0.1 pfu/cell. The assays were performed in either growth media or in the same media with 50% fetal bovine serum. Primer-probe set was Thermo Fisher Assay ID=AIFATFK.

The target in test [2] is T1, Human cytomegalovirus DNA polymerase (Human cytomegalovirus, UniProt P08546).
T1 construct: made in house; host or cells: SF21 insect cells (baculovirus vector)
T1 sequence (P08546 whole entry): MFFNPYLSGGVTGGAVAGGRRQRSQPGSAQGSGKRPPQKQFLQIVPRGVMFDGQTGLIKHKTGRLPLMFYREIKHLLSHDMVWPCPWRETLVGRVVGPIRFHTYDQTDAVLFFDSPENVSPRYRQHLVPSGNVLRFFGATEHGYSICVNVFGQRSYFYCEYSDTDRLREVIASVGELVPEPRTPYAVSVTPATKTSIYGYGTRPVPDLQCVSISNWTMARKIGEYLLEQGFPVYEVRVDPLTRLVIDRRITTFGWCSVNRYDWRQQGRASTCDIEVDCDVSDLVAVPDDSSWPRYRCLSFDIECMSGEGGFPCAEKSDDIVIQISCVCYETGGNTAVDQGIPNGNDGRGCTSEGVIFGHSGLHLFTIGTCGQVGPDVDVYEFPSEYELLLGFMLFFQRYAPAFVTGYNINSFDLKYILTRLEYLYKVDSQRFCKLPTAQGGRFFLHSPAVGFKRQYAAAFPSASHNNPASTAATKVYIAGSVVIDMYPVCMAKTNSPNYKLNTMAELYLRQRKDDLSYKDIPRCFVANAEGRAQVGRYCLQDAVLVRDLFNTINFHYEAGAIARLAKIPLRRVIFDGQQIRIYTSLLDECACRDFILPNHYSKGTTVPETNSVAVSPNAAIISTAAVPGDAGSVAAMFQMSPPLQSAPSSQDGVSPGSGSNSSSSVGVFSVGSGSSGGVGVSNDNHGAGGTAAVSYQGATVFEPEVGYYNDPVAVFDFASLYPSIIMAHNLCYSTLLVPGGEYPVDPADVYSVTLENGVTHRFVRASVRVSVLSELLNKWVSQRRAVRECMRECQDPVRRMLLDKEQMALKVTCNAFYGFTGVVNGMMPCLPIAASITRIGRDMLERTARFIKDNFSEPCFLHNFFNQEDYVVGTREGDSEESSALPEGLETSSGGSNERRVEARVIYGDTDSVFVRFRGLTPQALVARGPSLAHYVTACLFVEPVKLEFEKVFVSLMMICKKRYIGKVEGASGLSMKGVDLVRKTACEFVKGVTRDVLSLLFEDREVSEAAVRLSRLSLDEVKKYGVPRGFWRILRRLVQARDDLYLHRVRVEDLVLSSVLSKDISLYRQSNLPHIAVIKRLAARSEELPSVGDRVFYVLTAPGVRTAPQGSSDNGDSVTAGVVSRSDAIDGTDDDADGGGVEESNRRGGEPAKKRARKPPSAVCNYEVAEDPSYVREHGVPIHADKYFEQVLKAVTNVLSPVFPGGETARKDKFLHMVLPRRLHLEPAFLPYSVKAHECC
The test is described as follows: HCMV polymerase assay (AlphaLISA). Type of test: biochemical. The settings on record: HCMV DNA polymerase 0.2 nM, 60 minutes at 37° C.; read-out: CMV (IC50). The protocol: Human cytomegalovirus and varicella zoster virus DNA polymerases were expressed via baculovirus vector in SF21 cells and purified. Heterodimeric nucleic acid substrate used in the herpesvirus polymerase reactions was generated by annealing a 59-mer template to a 17-mer digoxigenin-labeled primer. Polymerase (HCMV final concentration of 0.2 nM; VZV final concentration of 0.4 nM) was combined with an inhibitor compound or DMSO in assay buffer (10 mM HEPES, pH 7.5, 25 mM KCl, 25 mM NaCl, 5 mM MgCl2, 5% glycerol, 0.67 mg/ml bovine serum albuminutes, and 1 mM tris(2-carboxyethyl)phosphine), and this mixture was pre-incubated for 30 minutes at room temperature in 384-well microtiter plates. The polymerization reaction was initiated by the addition of template/primer substrate (final concentration: 1.6 nM), and dNTPs (final concentration: 24 nM dCTP, 24 nMdGTP, 16 nM dATP, 16 nM dTTP, and 0.8 nM biotin-dUTP). After 60 minutes incubation at 37° C., reactions were terminated with quench buffer (25 mM HEPES pH 7.5, 100 mM NaCl, 0.25% Tween-20, 12 mM EDTA, and 1 mg/ml bovine serum albumin). Incorporation of biotinylated UTP was detected with 2.5-ug/ml anti-DIG AlphaLISA acceptor beads and 5-10 ug/ml streptavidin AlphaLISA donor beads (Perkin Elmer). Compound effects were normalized to the window defined by the controls (DMSO only and pre-quenched wells) and were fit using a 4-parameter algorithm to report an IC50.
A general note: In Alpha technology, singlet oxygen from a donor bead excites a nearby acceptor bead.

Setting [3] is: Human betaherpesvirus 5, AD169, MRC5, 72 h.

What is called EC50 is the concentration giving half of the maximal effect. In general, IC50 refers to the midpoint of a concentration-inhibition curve. With `CC([C@@H]1CCC(=O)N1)N1Cc2c(C(=O)NCc3ccc(Cl)cc3)nn(-c3nccs3)c2C1` (single isomer, unassigned) [Compound 6], the EC50 in test [1] (MRC5 cells, ~72 hrs) was 5.87 µM. Further, the IC50 in test [2] came to 0.958 µM.

Take `O=C1CC[C@@H](CN2Cc3c(C(=O)NCc4ccc(Cl)cc4)nn(C4CCC(F)(F)C4)c3C2)N1` (single isomer, unassigned) [Compound 54]: the EC50 in test [1] (MRC5 cells, ~72 hrs) was determined as 1.58 µM. The IC50 in test [2] came out at 0.146 µM.

Regarding `CC(C1CC(F)(F)C(=O)N1)N1Cc2c(C(=O)NCc3ccc(Cl)cc3)nn(C)c2C1` (single isomer, unassigned) [Compound 83], in test [1] (setting [3]), the EC50 was 99 µM. In addition, the half-maximal inhibitory concentration (IC50) in test [2] was 13.3 µM.

In the case of `CCC(C1CCC(=O)N1)N1Cc2c(C(=O)NCc3ccc(Cl)cc3)nn(C)c2C1` (single isomer, unassigned) [Compound 89], in test [1] (setting [3]), the EC50 turned out to be 7.64 µM. Also, in test [2], the half-inhibitory concentration (IC50) amounted to 0.8 µM.

With `CC1c2c(c(C(=O)NCc3ccc(Cl)cc3)nn2C)CN1CC1CCC(=O)N1` (single isomer, unassigned) [Compound 102], the EC50 in test [1] (MRC5 cells, ~72 hrs) turned out to be 71.2 µM. Further, the IC50 in test [2] is 5.77 µM.

Take `CCC1c2c(c(C(=O)NCc3ccc(Cl)cc3)nn2C)CN1CC1CCC(=O)N1` (single isomer, unassigned) [Compound 104]: the EC50 in test [1] (MRC5 cells, ~72 hrs) was 38.7 µM. Further, the IC50 in test [2] worked out at 1.81 µM.

In the case of `CC1c2c(c(C(=O)NCc3ccc(Cl)cc3)nn2C)CN1CC1CCC(=O)N1` (single isomer, unassigned) [Compound 108], the EC50 in test [1] (MRC5 cells, ~72 hrs) was determined as 1.96 µM. The IC50 in test [2] was determined as 0.702 µM.

Regarding `CC(C)[C@H]1c2c(c(C(=O)NCc3ccc(Cl)cc3)nn2C)CN1C(C)C1CCC(=O)N1` (single isomer, unassigned) [Compound 115], the concentration giving a half-maximal response (EC50) in test [1] (setting [3]) stood at 4.24 µM. In addition, in test [2], the IC50 amounted to 0.566 µM.

Regarding `CC(C)[C@H]1c2c(c(C(=O)NCc3ccc(Cl)cc3)nn2C)CN1C(C)C1CCC(=O)N1` (single isomer, unassigned) [Compound 116], in test [1] (MRC5 cells, ~72 hrs), the EC50 came out at 99 µM. Moreover, the IC50 in test [2] is 10.9 µM.

As for `CC(C)[C@H]1c2c(c(C(=O)NCc3ccc(Cl)cc3)nn2C)CN1C(C)C1CCC(=O)N1` (single isomer, unassigned) [Compound 117], the EC50 in test [1] (MRC5 cells, ~72 hrs) was 4.64 µM. The IC50 in test [2] turned out to be 0.68 µM.

As for `CC(C)[C@H]1c2c(c(C(=O)NCc3ccc(Cl)cc3)nn2C)CN1C(C)C1CCC(=O)N1` (single isomer, unassigned) [Compound 118], in test [1] (MRC5 cells, ~72 hrs), the EC50 was determined as 1.6 µM. Moreover, the IC50 in test [2] came out at 0.0837 µM.

With `CC(=O)OCC1c2c(c(C(=O)NCc3ccc(Cl)cc3)nn2C)CN1C[C@H]1CCC(=O)N1` (single isomer, unassigned) [Compound 119], the EC50 in test [1] (MRC5 cells, ~72 hrs) was 99 µM. In addition, the IC50 in test [2] came to 7.85 µM.

On to `Cn1nc(C(=O)NCc2ccc(Cl)cc2)c2c1C(CO)N(C[C@H]1CCC(=O)N1)C2` (single isomer, unassigned) [Compound 121], for which the EC50 in test [1] (setting [3]) was determined as 99 µM. In test [2], the IC50 stood at 13.3 µM.

Turning to `O=C1CC[C@H](CN2Cc3c(C(=O)NCc4ccc(Cl)cc4)nn(-c4ncc(CO)s4)c3C2)N1` [Compound 9], the EC50 in test [1] (setting [3]) amounted to 0.644 µM. In test [2], the IC50 was found to be 0.0192 µM.

For the compound `O=C1CC[C@H](CN2Cc3c(C(=O)NCc4ccc(Cl)cc4)nn(-c4ncc[nH]4)c3C2)N1` [Compound 14], the EC50 in test [1] (setting [3]) is 1.03 µM. For the same compound, the IC50 in test [2] stood at 0.0258 µM.

For the compound `O=C1CC[C@H](CN2Cc3c(C(=O)NCc4ccc(Cl)cc4)nn(-c4nc(-c5ccccc5)cs4)c3C2)N1` [Compound 15], in test [1] (setting [3]), the half-maximal effective concentration (EC50) stood at 1.1 µM. The IC50 in test [2] is 0.031 µM.

Consider `O=C1CC[C@H](CN2Cc3c(C(=O)NCc4ccc(Cl)cc4)nn(-c4ncc(O)cn4)c3C2)N1` [Compound 17], for which, in test [1] (setting [3]), the EC50 was found to be 51.4 µM. In test [2], the IC50 was found to be 0.0361 µM.

As to `CC(C)(C)c1csc(-n2nc(C(=O)NCc3ccc(Cl)cc3)c3c2CN(C[C@H]2CCC(=O)N2)C3)n1` [Compound 21], the EC50 in test [1] (setting [3]) is 2.67 µM. In addition, the IC50 in test [2] came out at 0.157 µM.

As for `Cn1nccc1-n1nc(C(=O)NCc2ccc(Cl)cc2)c2c1CN(C[C@H]1CCC(=O)N1)C2` [Compound 24], in test [1] (setting [3]), the EC50 was found to be 0.997 µM. The IC50 in test [2] came out at 0.148 µM.

Regarding `O=C1CC[C@H](CN2Cc3c(C(=O)NCc4ccc(Cl)cc4)nn([C@@H]4CCCOC4)c3C2)N1` [Compound 49], in test [1] (setting [3]), the EC50 stood at 3.54 µM. In addition, the IC50 in test [2] was determined as 0.0875 µM.

As to `O=C1CC[C@H](CN2Cc3c(C(=O)NCc4ccc(Cl)cc4)nn(C4CCOCC4)c3C2)N1` [Compound 50], the EC50 in test [1] (setting [3]) was found to be 1.49 µM. Besides, the IC50 in test [2] worked out at 0.125 µM.

For `O=C1CC[C@H](CN2Cc3c(C(=O)NCc4ccc(Cl)cc4)nn([C@H]4CCCOC4)c3C2)N1` [Compound 51], the EC50 in test [1] (setting [3]) was found to be 1.79 µM. Besides, the IC50 in test [2] is 0.129 µM.

As to `O=C1CC[C@@H](CN2Cc3c(C(=O)NCc4ccc(Cl)cc4)nn([C@H]4CCCOC4)c3C2)N1` [Compound 52], the EC50 in test [1] (setting [3]) stood at 0.885 µM. Besides, the IC50 in test [2] turned out to be 0.15 µM.

Turning to `O=C1CC[C@@H](CN2Cc3c(C(=O)NCc4ccc(Cl)cc4)nn(C4CCOCC4)c3C2)N1` [Compound 53], the EC50 in test [1] (setting [3]) is 2.09 µM. Besides, the IC50 in test [2] was found to be 0.124 µM.

For `CC(C)C(O)Cn1nc(C(=O)NCc2ccc(Cl)cc2)c2c1CN(C[C@H]1CCC(=O)N1)C2` (stereo partly drawn) [Compound 56], the EC50 in test [1] (setting [3]) stood at 1.79 µM. The IC50 in test [2] came out at 0.129 µM.

Take `Cn1nc(C(=O)NCc2ccc(C#N)c(F)c2)c2c1CN(C[C@H]1CCC(=O)N1)C2` [Compound 62]: in test [2], the IC50 is 0.0625 µM.

Take `O=C(NCc1ccc(Cl)cc1)c1nn(CCNC(=O)C2CCC2)c2c1CN(Cc1c(F)cncc1F)C2` [Compound 64]: the IC50 in test [2] was 0.064 µM.

For `CN(CCn1nc(C(=O)NCc2ccc(Cl)cc2)c2c1CN(Cc1ccncc1Cl)C2)C(=O)C1CCC1` [Compound 65], the IC50 in test [2] was found to be 0.0645 µM.

For `O=C(NCc1ccc(Cl)cc1)c1nn(CCNC(=O)C2CCC2)c2c1CN(Cc1ccnc(F)c1)C2` [Compound 67], the IC50 in test [2] is 0.119 µM.

With `O=C(NCc1ccc(Cl)cc1)c1nn(CCNC(=O)C2CCC2)c2c1CN(Cc1ccncc1Cl)C2` [Compound 70], the IC50 in test [2] is 1.71 µM.

As for `CC([C@@H]1CCC(=O)N1)N1Cc2c(C(=O)NCc3ccc(Cl)cc3)nn(C(F)F)c2C1` (stereo partly drawn) [Compound 72], the IC50 in test [2] was 0.976 µM.

As to `Cc1nnc2n1C(CN1Cc3c(C(=O)NCc4ccc(Cl)cc4)nn(C)c3C1)CC2` (stereo not drawn) [Compound 97], the IC50 in test [2] is 0.174 µM.
